According to article PMC3940083 (International Journal for Parasitology: Drugs and Drug …, 2013):

Tests used:
Format in all cases: biochemical
[1] = target: T1, PfAdoMetDC (S-adenosyl-L-methionine decarboxylase) (Plasmodium falciparum, UniProt Q8IJ77); conditions: read-out: Ki
T1 sequence (Q8IJ77 1-72 limits assumed): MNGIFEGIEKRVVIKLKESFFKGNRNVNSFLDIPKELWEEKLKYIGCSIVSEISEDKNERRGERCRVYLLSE
T1 sequence (Q8IJ77 73-529 limits assumed): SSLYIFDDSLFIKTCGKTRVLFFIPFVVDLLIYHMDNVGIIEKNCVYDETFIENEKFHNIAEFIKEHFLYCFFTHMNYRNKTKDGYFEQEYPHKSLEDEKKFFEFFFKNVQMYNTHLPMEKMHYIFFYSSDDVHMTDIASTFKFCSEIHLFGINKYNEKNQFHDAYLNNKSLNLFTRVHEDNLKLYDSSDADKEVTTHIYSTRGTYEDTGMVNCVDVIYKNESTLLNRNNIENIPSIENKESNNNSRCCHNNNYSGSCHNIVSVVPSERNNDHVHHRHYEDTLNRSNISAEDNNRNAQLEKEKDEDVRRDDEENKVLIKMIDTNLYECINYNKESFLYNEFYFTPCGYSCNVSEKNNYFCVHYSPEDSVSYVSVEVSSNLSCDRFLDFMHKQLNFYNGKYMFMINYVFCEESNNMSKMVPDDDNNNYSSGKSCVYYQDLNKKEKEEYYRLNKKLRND

[2] = target: T1, PfAdoMetDC (S-adenosyl-L-methionine decarboxylase); test: radiolabeled CO2 release assay, % inhibition at […]; conditions: read-out: % inhibition at 1 μM
[3] = target: T2, PfAdoMetDC/ODC (S-adenosyl-L-methionine decarboxylase, AdoMetDC domain) (Plasmodium falciparum, UniProt Q8IJ77); conditions: read-out: Ki
T2 sequence (Q8IJ77 1-72): T1 sequence (Q8IJ77 1-72 limits assumed)
T2 sequence (Q8IJ77 73-1434): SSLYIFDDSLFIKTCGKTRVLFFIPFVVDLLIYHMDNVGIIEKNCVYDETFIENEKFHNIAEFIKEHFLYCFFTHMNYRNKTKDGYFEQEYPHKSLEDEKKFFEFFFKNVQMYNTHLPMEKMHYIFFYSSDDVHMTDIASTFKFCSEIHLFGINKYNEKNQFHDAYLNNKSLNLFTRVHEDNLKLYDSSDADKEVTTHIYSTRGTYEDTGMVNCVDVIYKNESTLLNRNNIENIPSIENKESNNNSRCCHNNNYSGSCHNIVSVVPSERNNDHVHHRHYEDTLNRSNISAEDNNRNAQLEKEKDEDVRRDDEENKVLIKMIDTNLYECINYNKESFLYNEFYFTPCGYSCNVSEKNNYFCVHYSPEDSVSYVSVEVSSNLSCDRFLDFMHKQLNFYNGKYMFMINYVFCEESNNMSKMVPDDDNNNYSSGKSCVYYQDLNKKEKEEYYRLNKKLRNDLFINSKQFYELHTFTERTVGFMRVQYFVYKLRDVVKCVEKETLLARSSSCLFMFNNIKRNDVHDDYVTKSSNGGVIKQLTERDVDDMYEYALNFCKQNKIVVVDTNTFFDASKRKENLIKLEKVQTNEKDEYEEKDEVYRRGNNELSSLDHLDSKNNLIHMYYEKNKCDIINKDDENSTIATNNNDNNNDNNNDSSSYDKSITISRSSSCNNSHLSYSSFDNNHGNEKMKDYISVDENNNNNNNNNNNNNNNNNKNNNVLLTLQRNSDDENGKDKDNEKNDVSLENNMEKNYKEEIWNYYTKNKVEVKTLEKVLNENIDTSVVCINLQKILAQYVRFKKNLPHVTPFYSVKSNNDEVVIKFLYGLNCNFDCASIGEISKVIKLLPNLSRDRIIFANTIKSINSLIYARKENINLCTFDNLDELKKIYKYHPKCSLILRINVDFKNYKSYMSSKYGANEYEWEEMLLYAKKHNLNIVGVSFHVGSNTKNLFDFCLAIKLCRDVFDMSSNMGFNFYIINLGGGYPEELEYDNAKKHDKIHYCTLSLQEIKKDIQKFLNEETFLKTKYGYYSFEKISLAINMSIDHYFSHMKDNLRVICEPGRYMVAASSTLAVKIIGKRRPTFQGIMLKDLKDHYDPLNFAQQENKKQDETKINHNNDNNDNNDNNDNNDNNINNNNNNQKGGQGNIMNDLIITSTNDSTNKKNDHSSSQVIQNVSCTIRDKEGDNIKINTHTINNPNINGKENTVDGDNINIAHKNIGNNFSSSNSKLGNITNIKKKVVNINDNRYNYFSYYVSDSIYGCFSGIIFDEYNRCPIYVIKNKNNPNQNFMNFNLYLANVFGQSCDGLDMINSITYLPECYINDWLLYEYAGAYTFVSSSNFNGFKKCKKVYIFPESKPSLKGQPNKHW

Work on `CN(C/C=C\CN)C[C@H]1O[C@@H](n2cnc3c(N)ncnc32)[C@H](O)[C@@H]1O` [MDL73811, 5′-{[(Z)-4-amino-2-butenyl]methylamino}-5′-deoxyadenosine] yielded a KI (inactivation) [1] of 220 ± 90 nM.
`CN(C/C=C\CN)C[C@H]1O[C@@H](n2cnc3c(N)ncnc32)[C@@](O)(F)[C@@H]1O` [Genz-644043, 2′-fluoro-5′-{[(Z)-4-amino-2-butenyl]methylamino}-5′-deoxyadenosine] was tested, and the inhibition at 1 µM [2] was 57%.
With `Cc1nc2c(N)ncnc2n1[C@@H]1O[C@H](CN(C)C/C=C\CN)[C@@H](O)[C@H]1O` [Genz-644131, 8-methyl-5′-{[(Z)-4-aminobut-2-enyl]methylamino}-5′-deoxyadenosine] the KI (inactivation) [3] was 180 ± 20 nM.
